The values below come from patent publication US20100256214A1, “EPH RECEPTOR LIGANDS AND METHODS OF USE” (Burnham Institute for Medical Research, priority 2009, published 2010).

One assay deals with EphA2 (Homo sapiens, UniProt P29317). Briefly: EphA2 tyrosine phosphorylation in PC3 cells. In kind it is cell-based. More on the design: endogenous in cells; host or cells: PC3. The procedure: FIGS. 9A-9G. A. PC3 cells pretreated for 15 min with the indicated concentrations of compound 1 or compound 2 were stimulated with 0.5 μg/mL ephrin-A1 Fc (+) or Fc as a control (−) for 20 min in the continued presence of the compounds. EphA2 immunoprecipitates were probed with anti-phosphotyrosine antibody (PTyr) and reprobed for EphA2. C indicates immunoprecipitations performed with control antibodies. B. Histogram showing the levels of EphA2 phosphorylation normalized to the amount of immunoprecipitated EphA2. Error bars indicate standard error from 3 experiments. Receptor phosphorylation levels were compared with those in the ephrin-stimulated cells by one-way ANOVA and Dunnett's post test. *P<0.05 and *P<0.01. C. PC3 cells stimulated with compound 1 as in (A) were stained with rhodamine-phalloidin to label actin filaments and DAPI to label nuclei. DMSO was used as a control (0 μM). […] Cells having rounded shape and area less than 20% of the mean value obtained for the Fc stimulated cells were scored as retracting. […]
Chain of EphA2 (P29317 24-976): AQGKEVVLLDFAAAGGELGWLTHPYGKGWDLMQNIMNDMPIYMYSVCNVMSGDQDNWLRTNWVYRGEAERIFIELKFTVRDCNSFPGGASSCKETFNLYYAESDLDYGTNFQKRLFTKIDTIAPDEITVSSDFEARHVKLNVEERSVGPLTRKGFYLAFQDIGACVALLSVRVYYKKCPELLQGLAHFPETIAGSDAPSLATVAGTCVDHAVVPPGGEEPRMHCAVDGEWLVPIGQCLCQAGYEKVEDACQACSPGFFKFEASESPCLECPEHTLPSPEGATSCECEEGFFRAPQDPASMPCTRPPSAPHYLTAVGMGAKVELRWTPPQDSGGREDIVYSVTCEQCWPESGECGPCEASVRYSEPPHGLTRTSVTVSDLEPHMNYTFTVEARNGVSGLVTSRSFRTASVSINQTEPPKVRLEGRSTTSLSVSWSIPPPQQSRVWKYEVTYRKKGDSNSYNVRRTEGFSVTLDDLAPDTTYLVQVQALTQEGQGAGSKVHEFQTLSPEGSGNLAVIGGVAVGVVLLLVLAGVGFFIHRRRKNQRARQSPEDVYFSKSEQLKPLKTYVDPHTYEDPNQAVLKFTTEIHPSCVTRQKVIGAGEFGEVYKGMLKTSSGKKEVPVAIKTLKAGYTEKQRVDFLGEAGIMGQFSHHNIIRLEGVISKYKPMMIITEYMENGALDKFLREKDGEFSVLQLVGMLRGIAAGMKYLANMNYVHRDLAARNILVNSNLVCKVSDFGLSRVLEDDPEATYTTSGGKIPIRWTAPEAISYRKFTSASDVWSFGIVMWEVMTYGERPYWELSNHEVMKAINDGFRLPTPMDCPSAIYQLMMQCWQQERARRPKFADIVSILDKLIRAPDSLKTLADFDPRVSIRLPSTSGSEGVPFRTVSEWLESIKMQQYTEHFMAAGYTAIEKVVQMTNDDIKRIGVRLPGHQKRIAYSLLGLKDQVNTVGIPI
Measurement of Receptor Tyrosine Phosphorylation in Cells—HT22 neuronal cells, which endogenously express EphA4, are derived from immortalized mouse hippocampal neurons (Li et al. (1997) Neuron 19(2), 453-463). […] The protein concentration was calculated using the BCA protein assay kit (Pierce Biotecnology, Rockford, Ill.). […]

A further assay deals with EphA4 (Mus musculus, UniProt Q03137). Briefly: ELISA, EphA4 AP binding to immobilized biotinylated KYL peptide. Further details: made in house; conditioned culture medium used. Here is the method:
Chemical Library Screening for EphA4 Inhibitors—A 96-well format in vitro assay was used for compound screening. Polystyrene high binding capacity plates (Corning, Corning, N.Y.) were incubated overnight at 4° C. with 2 μg/mL streptavidin (Pierce Biotecnology, Rockford, Ill.) diluted in borate buffer 0.1 M pH 8.7 and then coated by overnight incubation with 0.1 μM of biotinylated KYL peptide (Murai et al. (2003) Mol Cell Neurosci 24(4), 1000-1011) in binding buffer (Tris-buffered saline (TBS; 150 mM NaCl, 50 mM Tris-HCl, pH 7.5) with 1 mM CaCl2 and 0.01% Tween 20). Compounds were added to the wells at 10 μg/mL in 100% dimethylsulfoxide (DMSO) together with EphA4 alkaline phosphatase fusion protein (EphA4 AP) produced from transfected cells. Cell culture medium containing the secreted EphA4 AP was diluted 1:16 in binding buffer. The mixture was incubated for 3 hours at room temperature before washing with binding buffer and adding p-nitrophenylphosphate (pNPP) (Pierce Biotecnology, Rockford, Ill.) as the substrate. After 1 hour the reaction was stopped by adding 2N NaOH and the absorbance at 405 nm was measured using an ELISA plate reader Alkaline phosphatase activity from wells where alkaline phosphatase (AP) was added instead of EphA4 AP was subtracted as background. The inhibitory activity of the compounds was calculated by dividing the absorbance observed in the presence of each compound and the absorbance from wells where no compound was added. Compounds with inhibitory activity higher than 50% were considered hits.
On the technique in general: An ELISA detects its analyte on a solid surface through an enzyme-linked reagent.

Chain of EphA4 (Q03137 20-547 limits assumed): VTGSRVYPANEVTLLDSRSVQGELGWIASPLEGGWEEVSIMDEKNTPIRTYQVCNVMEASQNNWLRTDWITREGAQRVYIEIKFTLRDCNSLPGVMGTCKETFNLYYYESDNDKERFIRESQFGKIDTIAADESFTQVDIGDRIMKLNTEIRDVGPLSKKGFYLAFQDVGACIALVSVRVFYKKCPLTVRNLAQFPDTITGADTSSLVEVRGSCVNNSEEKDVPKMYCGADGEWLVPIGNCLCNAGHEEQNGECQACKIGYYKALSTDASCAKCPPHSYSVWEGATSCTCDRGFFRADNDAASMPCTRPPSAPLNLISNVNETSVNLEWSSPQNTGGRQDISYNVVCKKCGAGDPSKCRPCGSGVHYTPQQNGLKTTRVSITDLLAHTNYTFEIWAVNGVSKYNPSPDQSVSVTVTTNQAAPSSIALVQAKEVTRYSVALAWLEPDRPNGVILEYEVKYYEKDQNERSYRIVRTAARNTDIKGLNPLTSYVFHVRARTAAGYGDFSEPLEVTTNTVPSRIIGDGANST

With `Cc1ccc(C)n1-c1ccc(C(=O)O)c(O)c1` [compound 1, 4-(2,5-dimethyl-pyrrol-1-yl)-2-hydroxy-benzoic acid], the “EphA2 activation following stimulation with ephrin-A1 Fc” value on EphA2 is on record as “blocked”. For the same compound, the “inhibition of EphA4-KYL peptide binding (in words)” value at EphA4 was “inhibit”.

For the compound `Cc1ccc(C)n1-c1ccc(O)c(C(=O)O)c1` [compound 2, 5-(2,5 dimethyl-pyrrol-1-yl)-2-hydroxy-benzoic acid], the “EphA2 activation following stimulation with ephrin-A1 Fc” value at EphA2 is listed as “blocked”. Moreover, the “inhibition of EphA4-KYL peptide binding (in words)” value at EphA4 is recorded as “inhibit”. The half-inhibitory concentration (IC50) (usually the concentration at which inhibition is half-maximal) at EphA4 (read-out: IC50 for inhibition of EphA4 AP binding to KYL peptide) was found to be 3 µM.
